Measurements reported in patent US9808527B2, “Methods and compositions for treating HIV infections” (priority 2006, dated 2017).
“Also recorded” adds a separate entry of the source. Read-outs that look alike come from different tables or passages of the source.

How the values were obtained:
HIV = conditions: read-out: ID50 (the source's name); cited from earlier work
[1] = molecular target: T1, CFP- and YFP-tagged HIV-1 protease subunits (Human immunodeficiency virus type 1 group M subtype B, UniProt P12497); format: cell-based; conditions: for dose response of dimerization inhibition: 0.001-10 μM (GRL-0026A 0.1-10 μM), 72 hrs
T1 construct: expressed in transfected cells; host or cells: Cos-7
Experimental: After 72 hr, cultured cells were examined in the FRET-HIV-1 assay system using confocal microscopy Fluoview FV500 confocal laser scanning microscope, and CFP^A/B were determined and plotted. […] The FRET efficiency was determined following acceptor photobleaching as previously described (Bastiaens et al., EMBO 1996; Siegel et al., Science's stke 2000; Firulli et al., Nature genetics, 2005; Szczesna et al., JBC 2003). Dequenching of the donor CFP by selective photobleaching of the acceptor YFP was performed by first obtaining YFP and CFP images at the same focal plane, followed by illuminating for 3 min the same image at wavelength of 488 nm with a laser power set at the maximum intensity to bleach YFP and re-capturing the same CFP and YFP images. The changes in the CFP and YFP fluorescence intensity in the images of selected regions were examined and quantified using Olympus FV500 Image software system. Background values were obtained from the regions where no cells were present and were subtracted from the values for the cells examined in all calculations. For each chimeric protein, the data were obtained from at least three independent experiments. FRET efficiency was determined using the formula: ET=(1−(IDA/ID))×100, where IDA and ID represent the steady-state donor fluorescence in the presence and absence of the acceptor, respectively. Digitized image data obtained from the experiment were prepared for presentation using Photoshop 6.0 (Adobe systems, Mountain View, Calif.). Ratios of intensities of ECFP fluorescence after photobleaching to ECFP fluorescence prior to photobleaching were determined. The ratios of more than 1 indicate that dimerization of CFP- and YFP-tagged protease subunits occurred and those of less than 1 indicate that dimerization was blocked by the test agent.
Generation of FRET-based HIV-1 expression assay. The basic concepts of the intermolecular fluorescence resonance energy transfer (FRET)-based HIV-1-expression assay (FRET-HIV-1 assay) are shown in FIG. 7. Within a plasmid (pHIV-1NL4-3), which encodes a full-length molecular infectious HIV-1 clone, the gene encoding a cyan fluorescent donor protein (CFP) was attached to the downstream end (C-terminus) of the gene encoding an HIV-1 protease subunit through the flexible linker added (five alanines), generating pHIV-1NL4-3/CFP (FIG. 7A). Within the other plasmid (pHIV-1NL4-3), the gene encoding a yellow fluorescent acceptor protein (YFP) was attached to the downstream end of protease-encoding gene in the same manner, generating pHIV-1NL4-3/YFP. Both CFP and YFP were designed to have phenylalanine and proline in the connection with reverse transcriptase so that the protease is cleaved from reverse transcriptase when two subunits dimerize and the dimerized protease acquires enzymatic activity. […] A focused laser beam excitation of CFP (triggered by Helium-Cadmium laser) results in rapid energy transfer to YFP, and most of the fluorescence photons are emitted by YFP (Miyawaki et al. Nature 388(6645):882-887 (1997)). If the dimerization is blocked, the average distance between CFP and YFP becomes larger and the energy transfer rate is decreased and the fraction of photons emitted by YFP is lowered.
In order to interpret the energy transfer efficiency quantitatively, an acceptor photobleaching technique was used, in which the change in CFP emission quenching is measured by comparing the value before and after selectively photobleaching YFP, which prevents problems associated with variable expression levels.

HIV-1LAI = experiment: MTT assay, MT-2 cells exposed to HIV-1LAI (acute HIV-1 infection assay); format: cell-based
Experimental: Drug susceptibility assay. The susceptibility of HIV-1LAI, HIV-2EHO, HIV-2ROD, to various drugs and the cytotoxicity of those drugs was determined by using the MTT assay. Briefly, MT-2 cells (2×10^4/mL) were exposed to 100 TCID50s (50% tissue culture infectious doses) of HIV-1LAI, HIV-2EHO, or HIV-2ROD in the presence or absence of various concentrations of drugs in 96-well microculture plates and were incubated at 37° C. for 7 days. After 100 μL of the medium was removed from each well, 3-(4,5-dimethylthiazol-2-yl)-2,5-diphenyltetrazolium bromide (MTT) solution (10 μL, 7.5 mg/mL in phosphate-buffered saline) was added to each well in the plate, followed by incubation at 37° C. for 4 hours. […] All assays were performed in duplicate or triplicate. To determine the sensitivity of HIV-1Ba-L, HIV-1ERS104 pre, and clinical multi-drug-resistant HIV-1 isolates and different subtypes of HIV-1 isolates to drugs, phytohemagglutinin-activated peripheral blood mononuclear cells (PHA-PBMs; 10^6/mL) were exposed to 50 TCID50 (50% tissue infectious dose) of each HIV-1 isolate and cultured in the presence or absence of various concentrations of drugs in 10-fold serial dilutions in 96-well microtiter culture plates. To determine the drug susceptibility of certain laboratory HIV-1 strains (HIV-1NL4-3), MT-4 cells were used as target cells. MT-4 cells (10^5/mL) were exposed to 100 TCID50 of wild type HIV-1NL4-3 and PI-resistant HIV-1NL4-3 in the presence or absence of various concentrations of drugs and were incubated at 37° C. On day 7 of culture, the supernatant was harvested and the amount of p24 Gag protein was determined by using a fully automated chemiluminescent enzyme immunoassay system (Lumipulse F; Fujirebio Inc., Tokyo, Japan) (22). […] All assays were performed in duplicate or triplicate.

[2] = molecular target: dimerized mature HIV-1 protease (Human immunodeficiency virus type 1 group M subtype B, UniProt P12497); experiment: Assay for effects on dimerized mature protease (cycloheximide, FRET); format: cell-based; conditions: 1 μM added on day 5 after cycloheximide 50 μg/ml
Experimental: […] Cellular protein synthesis was monitored every 24 hours by determining levels of p24 Gag protein produced into culture medium using the fully automated chemiluminescent enzyme immunoassay system (Lumipulse F; Fujirebio Inc., Tokyo, Japan). The cells were exposed to TMC114 (1 μM) on day 5 and beyond of culture and analyzed under Fluoview FV500 confocal laser scanning microscope (OLYMPUS Optical Corp) at room temperature.
When the CFP^A/B ratios determined were greater than 1.0, it was determined that HIV-1 protease had been generated and dimerization had occurred. The production of HIV-1 was monitored every 24 hours following transfection by determining levels of p24 Gag protein produced into culture medium as described by Koh et al. Antimicrob Agents Chemother 47:3123-9 (2003).
Dissociation of already formed dimer. TMC114 was examined for its ability to dissociate the protease once dimerized within cells producing infectious HIV-1 virions. Cos-7 cells were co-transfected with wild-type pNLPR-CFP and -YFP plasmids, exposed to cycloheximide (50 μg/mL) in 24, 48, 72, and 96 hrs of culture and beyond, the cells exposed to 1 μM TMC114 on day 5 of culture and beyond, cellular protein synthesis was monitored every 24 hours by determining levels of p24 Gag protein produced into culture medium, and the values of the ratio were determined at various time points. […]

HIV-1 protease = molecular target: T2, HIV-1 protease (Human immunodeficiency virus type 1 group M subtype B, UniProt P04585, C555A/C583A/L521I/L551I/Q495K/V491I); experiment: biochemical; format: biochemical
T2 construct: Wild-type PR at final concentrations of 160-190 nM were added
Description: Enzyme kinetics. The chromogenic substrate Lys-Ala-Arg-Val-Nle-p-nitroPhe-Glu-Ala-Nle-amide (Sigma, St. Louis, Mo.) was used to determine the kinetic parameters (Kovalevsky et al. J Mol Biol 363(1):161-173 (2006), Ghosh et al. J Med Chem 49(17):5252-5261 (2006)). […] The kcat and Km values were obtained employing standard data fitting techniques for a reaction obeying Michaelis-Menten kinetics. The data curves were fitted using SigmaPlot 8.0.2 (SPSS Inc., Chicago, Ill.). The active enzyme concentrations were calculated from the intercept of the linear fit to the IC50 versus [S] plots with the IC50 axis. The Ki values were obtained from the IC50 values estimated from an inhibitor dose-response curve with the spectroscopic assay using the equation Ki=(IC50-[E]/2)/(1+[S]/Km), where [E] and [S] are the PR and substrate concentrations, respectively (Maibaum & Rich J Med Chem 31(34):625-629 (1988)). The Ki values were measured at four to five substrate concentrations. The measurement was repeated at least three times to produce the average values.

[3] = Human immunodeficiency virus 1, MT2, 168 h, read-out: IC50 against HIV-1LAI, MT-2 cells, 100 TCID50 of HIV-1LAI, MTT assay on day 7
[4] = Human immunodeficiency virus 1, MT2, 168 h, read-out: MTT assay (IC50, nM), Human CD4+ MT-2 cells, 100 TCID50 of HIV-1LAI, day 7
[5] = MT-2 cells, 100 TCID50 of HIV-1LAI, MTT assay on day 7, read-out: IC50 against HIV-1LAI

Cc1ccc(S(=O)(=O)N(CC(C)C)CC(O)C(Cc2ccccc2)NC(=O)OC2COC3OCCC23)cc1 (centres unmarked)
IC50 (HIV): 3.5 nM

Nc1nc(NC2CC2)c2ncn([C@H]3C=C[C@@H](CO)C3)c2n1 [ABC, abacavir]
inhibition of protease dimerization ([1]; 10 μM, Cos-7 cells): failed to inhibit the dimerization | inhibition of protease dimerization ([1]; 10 μM, Cos-7 cells, listed as abacavir): did not block the dimerization; also recorded: failed to inhibit HIV-1 protease dimerization

CC(C)CN(CC(O)C(Cc1ccccc1)NC(=O)OC1COC2OCCC12)S(=O)(=O)c1ccc(N)cc1 (centres unmarked)
IC50 (HIV): 4.5 nM

COc1ccc(S(=O)(=O)N(CC(C)C)CC(O)C(Cc2ccccc2)NC(=O)OC2COC3OCCC23)cc1 (centres unmarked) [drawing 20]
IC50 (HIV): 1.4 nM

COc1ccc(S(=O)(=O)N(CC(C)C)CC(O)C(Cc2ccccc2)NC(=O)OC2COC3OCCC23)cc1 (centres unmarked) [TMC126]
inhibition of protease dimerization ([1]; 1 μM, Cos-7 cells): dimerization was effectively blocked; also recorded: disrupt protease dimerization | dose response of dimerization inhibition [1]: Dose-responsive dimerization inhibition | IC50 (HIV-1LAI; [3]): 0.3 nM | IC50 (HIV-1LAI; [4]): 0.3 nM

Cc1ccnc2c1NC(=O)c1cccnc1N2C1CC1 [NVP, nevirapine]
inhibition of protease dimerization ([1]; 1 μM, Cos-7 cells): failed to inhibit the dimerization | inhibition of protease dimerization ([1]; 1 μM, Cos-7 cells, listed as nevirapine): did not block the dimerization; also recorded: failed to inhibit HIV-1 protease dimerization

CCCCN1C(=O)[C@@H]([C@H](O)C2CCCCC2)NC(=O)C12CCN(Cc1ccc(Oc3ccc(C(=O)O)cc3)cc1)CC2 [aplaviroc]
inhibition of protease dimerization ([1]; 1 μM, Cos-7 cells): did not block the dimerization; also recorded: failed to inhibit the dimerization; also recorded: failed to inhibit HIV-1 protease dimerization

CC(C)CN(C[C@@H](O)[C@H](Cc1ccccc1)NC(=O)O[C@H]1CO[C@H]2OCC[C@H]21)S(=O)(=O)c1ccc(N)cc1 [DRV, darunavir]
inhibition of protease dimerization ([1]; 1 μM, Cos-7 cells): disrupt protease dimerization | inhibition of protease dimerization ([1]; 1 μM, Cos-7 cells, listed as TMC114): dimerization was effectively blocked; also recorded: blocked the dimerization; also recorded: blocked protease dimerization | concentration effectively blocking FRET / disrupting protease dimerization ([1]; in culture, Cos-7 cells): 0.1 µM | IC50 (HIV-1LAI; [3]): 3 nM | IC50 (HIV-1LAI; [4]): ~3 nM | dissociation of already dimerized protease [2]: failed to dissociate mature protease dimer | dissociation of already dimerized protease ([2]; listed as TMC114): no inhibition of FRET was detected; also recorded: did not appear to reverse the dimerization

Cc1nc(COc2ccc(C[C@H](NC(=O)O[C@H]3CO[C@H]4OCC[C@H]43)[C@H](O)CN(CC(C)C)S(=O)(=O)c3ccc4c(c3)OCO4)cc2)cs1 [BCV, brecanavir]
inhibition of protease dimerization ([1]; 1 μM, Cos-7 cells): disrupt protease dimerization | dose response of dimerization inhibition [1]: Dose-responsive dimerization inhibition | Ki (HIV-1 protease): 0.0068 nM | IC50 (HIV-1LAI; [3]): 0.2 nM

COc1ccc(S(=O)(=O)N(CC(C)C)C[C@@H](O)[C@H](Cc2ccccc2)NC(=O)C[C@H]2CO[C@H]3OCC[C@@H]23)cc1 [GRL-0026A]
dose response of dimerization inhibition [1]: Dose-responsive dimerization inhibition | IC50 (HIV-1LAI; [5]): 480 nM

O=C1Nc2ccc(Cl)cc2[C@@](C#CC2CC2)(C(F)(F)F)O1 [EFV, efavirenz]
inhibition of protease dimerization ([1]; 1 μM, Cos-7 cells): failed to inhibit the dimerization | inhibition of protease dimerization ([1]; 1 μM, Cos-7 cells, listed as efavirenz): did not block the dimerization; also recorded: failed to inhibit HIV-1 protease dimerization

COc1ccc(S(=O)(=O)N(CC(C)C)CC(O)C(Cc2ccccc2)NC(=O)OC2COC3OCCCC23)cc1 (centres unmarked)
IC50 (HIV): 4.5 nM

CC(C)CN(C[C@@H](O)[C@H](Cc1ccccc1)NC(=O)O[C@@H]1C[C@@H]2CCO[C@@H]2C1)S(=O)(=O)c1ccc(CO)cc1 [GRL-06579A]
inhibition of protease dimerization ([1]; 1 μM, Cos-7 cells): dimerization was effectively blocked; also recorded: disrupt protease dimerization | Ki (HIV-1 protease; wild-type PR, pH 5.0, read-out: Ki against HIV-1 protease): 0.0035 nM | IC50 (HIV-1LAI; [5]): 1 nM

CCC[C@@]1(CCc2ccccc2)CC(O)=C([C@H](CC)c2cccc(NS(=O)(=O)c3ccc(C(F)(F)F)cn3)c2)C(=O)O1 [TPV, tipranavir]
IC50 (HIV-1LAI; [3]): 100 nM
